Like-named read-outs stand apart in the source and are kept apart here.
Key:
[1] = tested on: thiopental-induced anesthesia; assay type: in vivo, mouse (ddY-strain male); conditions: 60 mg/10 ml/kg, control 1.00
Protocol: ddY-strain male mice of 5 weeks of age were employed. Thiopental sodium was dissolved in physiological saline, and the test substance was prepared with a suspending agent of 0.5% Tween 80 (trade name, produced by Atlas Powder Co.; polyoxyethylene (20) sorbitan mono-oleate) and 1% gum tragacanth in the ratio of 1:2.5. The test animals were starved for 4 hours, 60 mg/10 ml/kg of the test substance was intraperitoneally administered (or orally administered), and then 20 minutes later (1 hour later in the case of oral administration), 30 mg/[…] of thiopental sodium was intravenously administered. The time immediately from intravenous administration to the righting reflex was measured, and this was defined as the anesthetic time. The formula for determining the anesthesia elongation is shown below. [formula]

[2] = toxicity test in mice by oral administration; conditions: in vivo, male mouse
From the text: Also, the compounds of the present invention are extremely safe, and can be used continuously for a long term as pharmaceuticals, and were confirmed to have good tolerability in the toxicity test in mice by oral administration.

histamine-induced death = test: Protective effect on histamine-induced death; assay type: in vivo, guinea pig (Hartley-strain male); conditions: oral 1 mg/kg, 2 h before 1.25 mg/kg i.v. histamine hydrochloride, guinea pig; for responders at 1 mg/kg: Cavia porcellus, read-out: Percent inhibition of histamine-induced death at a dose of 1 mg/kg, P.D. (%)
Protocol: Hartley-strain male guinea pigs weighing 200 to 250 g were employed. After the test animals were starved for 5 hours, the test substance was orally administered at a dose of 1 mg/kg. 2 hours later after administration of the test substance, 1.25 mg/kg of histamine hydrochloride was intravenously administered to induce histamine shock. The potency of the test substance was judged by the percent inhibition of death induced by histamine.

[3] = cited from earlier work
[4] = p.o., 1 hour before i.v. thiopental sodium
[5] = i.p., 20 minutes before i.v. thiopental sodium

Compound | The ratio of the elongation on the anesthetic time induced by thiopental [1, 4] | responders at 1 mg/kg (histamine-induced death) | The ratio of the elongation on the anesthetic time induced by thiopental [1, 5] | also measured
Clc1ccc(C(OC2CCN(CCSc3nc4ccccc4o3)CC2)c2ccccn2)cc1.O=C(O)/C=C/C(=O)O (centres unmarked) [Compound B, 2-[2-[4-[(4-Chlorophenyl)-2-pyridylmethoxy]-1-piperidyl]-ethylthio]benzoxazole fumarate] | 1.21 | – | – | LD50 [2]: 1700 mg/kg
CN1CCCC(n2nc(Cc3ccc(Cl)cc3)c3ccccc3c2=O)CC1 (centres unmarked) [Azelastine hydrochloric acid, reference compound] | – | 100% | – | –
O=C(CCCN1CCC(OC(c2ccc(Cl)cc2)c2ccccn2)CC1)c1ccccc1 (centres unmarked) [Compound Q, 4-[(4-Chlorophenyl)-2-pyridylmethoxy]-1-(3-benzoylpropyl)piperidine] | 1.25 | 100% | – | –
NC(=O)CCCN1CCC(OC(c2ccc(Cl)cc2)c2ccccn2)CC1.O=C(O)/C=C\C(=O)O (centres unmarked) [Compound M, 4-[4-[(4-Chlorophenyl)-2-pyridylmethoxy]-1-piperidyl]-butanamide maleate] | 0.75 | 100% | – | –
Clc1ccc(C(OC2CCN(CCNc3nc4ccccc4s3)CC2)c2ccccn2)cc1 (centres unmarked) [Compound H, 2-[2-[4-[(4-Chlorophenyl)-2-pyridylmethoxy]-1-piperidyl]-ethylamino]benzothiazole] | – | 100% | 1.05 | –
Chlorophenylamine maleate [reference compound] | – | – | 1.81 | Percent inhibition of histamine-induced death at a dose of 1 mg/kg, P.D. (%) (histamine-induced death): 100%
Clc1ccc(C(OC2CCN(CCSc3nc4ccccc4o3)CC2)c2ccccn2)cc1 (centres unmarked) [Compound A, 2-[2-[4-[(4-Chlorophenyl)-2-pyridylmethoxy]-1-piperidyl]-ethylthio]benzoxazole] | – | 100% | 0.89 | –
c1ccc2c(c1)Sc1ccccc1N2CC1CN2CCC1CC2 (centres unmarked) [Meqiutazine, reference compound] | – | 80% | – | –
CC(C)(C)c1ccc(C(O)CCCN2CCC(C(O)(c3ccccc3)c3ccccc3)CC2)cc1 (centres unmarked) [Terfenadine, reference compound] | – | 50% | – | sedative side-effect ([3]; in vivo): little sedative side-effect
CCOC(=O)CCCN1CCC(OC(c2ccc(Cl)cc2)c2ccccn2)CC1 (centres unmarked) [Compound J, Ethyl 4-[4-[(4-chlorophenyl)-2-pyridylmethoxy]-1-piperidyl]butanoate] | – | 100% | 1.04 | –
O=c1[nH]c2ccccc2n1CCCN1CCN(C(c2ccccc2)c2ccccc2)CC1 [Oxatomide, reference compound] | 4.56 | 100% | – | –
c1ccc(C(c2ccccc2)N2CCN(CCCSc3nc4ccccc4s3)CC2)cc1 [Compound I, 2-[3-[4-(diphenylmethyl)-1-piperadinyl]propylthio]benzothiazole dimaleate] | – | 80% | 1.25 | –
CCOC(=O)CCCN1CCC(OC(c2ccc(Cl)cc2)c2ccccn2)CC1.Cc1ccc(S(=O)(=O)O)cc1 (centres unmarked) [Compound K, Ethyl 4-[4-[(4-chlorophenyl)-2-pyridylmethoxy]-1-piperidyl]butanoate p-toluenesulfonate] | 1.19 | – | – | LD50 [2]: 2200 mg/kg
O=C(O)CCCN1CCC(OC(c2ccc(Cl)cc2)c2ccccn2)CC1 (centres unmarked) [Compound L, 4-[4-[(4-Chlorophenyl)-2-pyridylmethoxy]-1-piperidyl]-butanoic acid] | – | 100% | – | –
CCOC(=O)C=CCN1CCC(OC(c2ccc(Cl)cc2)c2ccccn2)CC1 (centres unmarked) [Compound O, Ethyl 4-[4-[(4-chlorophenyl)-2-pyridylmethoxy]-1-piperidyl]-2-butenoate] | 1.14 | 100% | – | –
COc1ccc(CCN2CCC(Nc3nc4ccccc4n3Cc3ccc(F)cc3)CC2)cc1 [Astemizole, reference compound] | – | 100% | – | sedative side-effect ([3]; reported for control drugs): little sedative side-effect
Clc1ccc(C(OC2CCN(CCSc3nc4ccccc4s3)CC2)c2ccccn2)cc1 (centres unmarked) [Compound E, 2-[2-[4-[(4-Chlorophenyl)-2-pyridylmethoxy]-1-piperidyl]-ethylthio]benzothiazole] | – | 60% | 1.02 | –
Clc1ccc(C(OC2CCN(CCNc3nc4ccccc4o3)CC2)c2ccccn2)cc1.O=C(O)/C=C/C(=O)O (centres unmarked) [Compound D, 2-[2-[4-[(4-Chlorophenyl)-2-pyridylmethoxy]-1-piperidyl]-ethylamino]benzoxazole fumaric acid salt] | 0.88 | 100% | – | LD50 [2]: 740 mg/kg
CCOc1ccc2nc(SCCCN3CCC(OC(c4ccc(Cl)cc4)c4ccccn4)CC3)sc2c1.O=C(O)/C=C/C(=O)O (centres unmarked) [Compound G, 2-[3-[4-[(4-chlorophenyl)-2-pyridylmethoxy]-1-piperidyl]propylthio]-6-ethoxybenzothiazole fumarate] | 0.92 | 100% | – | –
Clc1ccc(C(OC2CCN(CCCSc3nc4ccccc4s3)CC2)c2ccccn2)cc1 (centres unmarked) [Compound F, 2-[3-[4-[(4-Chlorophenyl)-2-pyridylmethoxy]-1-piperidyl]-propylthio]benzothiazole] | – | 80% | 1.73 | –
CCOC(=O)CCCN1CCC(OC(c2ccccc2)c2ccccc2)CC1.O=C(O)/C=C/C(=O)O [Compound N, Ethyl 4-(4-diphenylmethoxy-1-piperidyl)butanoate fumaric acid salt] | 0.90 | 80% | – | –
Clc1ccc(C(OC2CCN(CCCSc3nc4ccccc4o3)CC2)c2ccccn2)cc1 (centres unmarked) [Compound C] | – | 100% | 0.91 | –
CC(=O)CCCN1CCC(OC(c2ccc(Cl)cc2)c2ccccn2)CC1.O=C(O)/C=C/C(=O)O (centres unmarked) [Compound P, 5-[4-[(4-Chlorophenyl)-2-pyridylmethoxy]-1-piperidyl]-2-pentanone fumaric acid salt] | 0.86 | 100% | – | –

Source: patent publication US4929618A, “Piperdine and piperazine derivatives, and antihistaminic pharmaceutical compositions containing the same” (priority 1988, dated 1990)
